Consider 27 compounds from ChEMBL document CHEMBL5042524, “Discovery of Novel Histone Deacetylase 6 (HDAC6) Inhibitors with Enhanced Antitumor Immunity of Anti-PD-L1 Immunotherapy in Melanoma” (J Med Chem, 2022).

Data set [1] concerns the target Histone deacetylase. The experiment in a line: Inhibition of HDAC in human HeLa nuclear extracts using fluorometric substrate incubated for 30 mins by fluorescence plate reader analysis. The format is cell-based.
Data set [2] concerns the target Histone deacetylase 3 (Homo sapiens, UniProt O15379). Nature of the data set: Inhibition of recombinant human His-tagged HDAC3 expressed in baculovirus insect cells using Ac-Leu-Gly-Lys (Ac)-AMC as substrate preincubated for 5 mins followed by substrate addition and measured after 30 mins by fluorescence microtiter plate reader assay.
Data set [3] concerns the target T1, Protein deacetylase HDAC6 (Homo sapiens, UniProt Q9UBN7).
T1 sequence (Q9UBN7 whole entry): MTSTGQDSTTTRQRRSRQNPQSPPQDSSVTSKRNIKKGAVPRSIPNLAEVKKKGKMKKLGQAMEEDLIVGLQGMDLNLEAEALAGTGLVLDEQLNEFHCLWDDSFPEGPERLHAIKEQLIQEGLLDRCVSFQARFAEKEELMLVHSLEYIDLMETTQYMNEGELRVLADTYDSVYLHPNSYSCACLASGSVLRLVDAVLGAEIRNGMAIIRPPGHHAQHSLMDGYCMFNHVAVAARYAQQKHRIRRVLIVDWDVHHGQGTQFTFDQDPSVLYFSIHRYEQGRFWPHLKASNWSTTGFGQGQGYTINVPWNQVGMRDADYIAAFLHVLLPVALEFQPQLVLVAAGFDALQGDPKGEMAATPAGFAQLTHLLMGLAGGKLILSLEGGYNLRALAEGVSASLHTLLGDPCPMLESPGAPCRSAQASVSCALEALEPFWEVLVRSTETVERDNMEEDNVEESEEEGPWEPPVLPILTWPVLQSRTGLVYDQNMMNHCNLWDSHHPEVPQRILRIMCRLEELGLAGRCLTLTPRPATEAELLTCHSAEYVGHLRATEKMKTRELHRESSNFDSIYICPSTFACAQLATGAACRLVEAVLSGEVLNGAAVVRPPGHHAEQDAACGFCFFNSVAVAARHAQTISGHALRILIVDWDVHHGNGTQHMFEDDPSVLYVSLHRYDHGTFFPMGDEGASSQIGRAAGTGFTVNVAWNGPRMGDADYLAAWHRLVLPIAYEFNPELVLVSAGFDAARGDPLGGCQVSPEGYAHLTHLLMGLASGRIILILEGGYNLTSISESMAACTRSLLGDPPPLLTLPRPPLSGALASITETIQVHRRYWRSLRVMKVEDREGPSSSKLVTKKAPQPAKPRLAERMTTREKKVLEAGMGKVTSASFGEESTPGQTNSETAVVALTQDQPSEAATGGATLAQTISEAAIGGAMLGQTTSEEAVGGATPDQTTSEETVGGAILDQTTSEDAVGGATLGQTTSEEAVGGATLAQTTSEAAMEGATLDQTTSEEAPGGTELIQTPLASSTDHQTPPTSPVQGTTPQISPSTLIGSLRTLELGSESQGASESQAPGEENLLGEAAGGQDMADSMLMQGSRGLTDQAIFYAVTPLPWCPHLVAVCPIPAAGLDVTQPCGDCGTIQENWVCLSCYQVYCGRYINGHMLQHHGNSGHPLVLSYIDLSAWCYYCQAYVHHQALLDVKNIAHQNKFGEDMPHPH
The experiment in a line: Inhibition of recombinant human N-terminal GST tagged HDAC6 expressed in baculovirus infected Sf9 insect cells using Ac-Leu-Gly-Lys (Ac)-AMC as substrate preincubated for 5 mins followed by substrate addition and measured after 30 mins by fluorescence microtiter plate reader assay.

Data set [4] is described as follows: Antiproliferative activity against human YCC-11 cells assessed as cell growth inhibition. The class given is functional, cell-based.
The nature of data set [5]: Antiproliferative activity against human YCC3/7 cells assessed as cell growth inhibition. The class given is functional, cell-based.
For data set [6], the target named is Histone deacetylase 1 (Homo sapiens, UniProt Q13547). Nature of the data set: Inhibition of recombinant human HDAC1 expressed in baculovirus expression system using Ac-Leu-Gly-Lys (Ac)-AMC as substrate preincubated for 5 mins followed by substrate addition and measured after 30 mins by fluorescence microtiter plate reader assay.
Chain of Histone deacetylase 1 (Q13547 whole entry): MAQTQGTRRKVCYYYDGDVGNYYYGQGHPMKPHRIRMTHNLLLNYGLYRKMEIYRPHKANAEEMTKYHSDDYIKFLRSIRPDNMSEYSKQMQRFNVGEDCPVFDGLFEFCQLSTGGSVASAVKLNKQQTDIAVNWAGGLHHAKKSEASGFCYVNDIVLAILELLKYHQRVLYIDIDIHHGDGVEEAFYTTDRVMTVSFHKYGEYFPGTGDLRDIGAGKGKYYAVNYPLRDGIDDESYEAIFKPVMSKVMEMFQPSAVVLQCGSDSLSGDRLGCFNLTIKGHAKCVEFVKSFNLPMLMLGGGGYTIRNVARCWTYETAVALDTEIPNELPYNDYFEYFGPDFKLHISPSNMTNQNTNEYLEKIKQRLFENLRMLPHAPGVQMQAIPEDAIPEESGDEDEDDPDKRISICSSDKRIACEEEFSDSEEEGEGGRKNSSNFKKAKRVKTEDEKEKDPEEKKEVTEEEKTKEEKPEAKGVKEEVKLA
For data set [7], the target named is T2, Histone deacetylase 8 (Homo sapiens, UniProt Q9BY41).
T2 sequence (Q9BY41 whole entry): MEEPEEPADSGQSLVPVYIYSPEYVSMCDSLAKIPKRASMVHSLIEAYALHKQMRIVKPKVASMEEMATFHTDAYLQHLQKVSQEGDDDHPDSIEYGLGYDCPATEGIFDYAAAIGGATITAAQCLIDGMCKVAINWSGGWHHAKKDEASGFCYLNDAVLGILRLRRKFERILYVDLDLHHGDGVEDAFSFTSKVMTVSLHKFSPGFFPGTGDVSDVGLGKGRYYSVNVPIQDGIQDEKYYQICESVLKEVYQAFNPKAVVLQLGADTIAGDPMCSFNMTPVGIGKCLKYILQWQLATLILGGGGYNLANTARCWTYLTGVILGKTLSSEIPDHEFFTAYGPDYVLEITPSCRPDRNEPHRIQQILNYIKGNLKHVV
Nature of the data set: Inhibition of full length recombinant human C-terminal His tagged HDAC8 expressed in baculovirus infected Sf9 insect cells using Ac-Leu-GlyLys (Tfa)-AMC as substrate preincubated for 5 mins followed by substrate addition and measured after 30 mins by fluorescence microtiter plate reader assay.

Data set [8] has as its system HCT-116. The experiment in a line: cells. The format is functional, cell-based. Conditions: Homo sapiens, HCT-116, 48 h.
Description: Antiproliferative activity against human HCT-116 cells assessed as inhibition of cell proliferation measured after 48 hrs by MTT assay
Data set [9] has as its system A549. The experiment in a line: cells. The class given is functional, cell-based. Conditions: Homo sapiens, A549, 48 h.
Description: Antiproliferative activity against human A549 cells assessed as inhibition of cell proliferation measured after 48 hrs by MTT assay
Data set [10] has as its system MCF7. The experiment in a line: cells. The class given is functional, cell-based. Conditions: Homo sapiens, MCF7, 48 h.
Description: Antiproliferative activity against human MCF7 cells assessed as inhibition of cell proliferation measured after 48 hrs by MTT assay
Data set [11] in a line: Cytotoxicity against human Jurkat cells assessed as reduction in cell viability incubated for 72 hrs by CCK-8 assay. For orientation: Tetrazolium dyes change colour on reduction, which living cells bring about.
Data set [12] relates to B16-F10. The experiment in a line: cells. The format is functional, cell-based. Conditions: Mus musculus, B16-F10, 48 h.
Description: Antiproliferative activity against mouse B16-F10 cells assessed as inhibition of cell proliferation measured after 48 hrs by MTT assay

Chain of Histone deacetylase 3 (O15379 whole entry): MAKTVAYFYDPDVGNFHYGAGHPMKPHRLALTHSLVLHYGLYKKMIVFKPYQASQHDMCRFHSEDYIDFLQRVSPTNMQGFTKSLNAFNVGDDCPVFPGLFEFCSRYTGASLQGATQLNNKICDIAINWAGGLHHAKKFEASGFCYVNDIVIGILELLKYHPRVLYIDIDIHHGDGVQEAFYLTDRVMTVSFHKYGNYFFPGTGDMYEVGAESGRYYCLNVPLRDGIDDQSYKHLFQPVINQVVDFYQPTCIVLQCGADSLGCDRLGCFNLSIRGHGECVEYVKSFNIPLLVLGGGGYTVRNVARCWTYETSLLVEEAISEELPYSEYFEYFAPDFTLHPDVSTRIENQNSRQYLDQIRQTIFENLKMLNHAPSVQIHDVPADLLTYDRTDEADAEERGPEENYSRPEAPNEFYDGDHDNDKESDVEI

With `O=C(CCCCCCNC(=O)c1cnc(-c2ccc(F)cc2)s1)NO`, the IC50 in data set [1] came to 1.02 µM.
For the compound `COc1cc(OC)cc(-c2ncc(/C=C/C(=O)NO)s2)c1`, the IC50 is 0.72 µM in [1], greater than 10 µM in data set [2] and 0.94 µM in data set [3].
On to `Cc1cccc(-c2ncc(/C=C/C(=O)Nc3ccccc3N)s2)c1`, for which the IC50 in data set [1] was determined as 0.81 µM.
Take `Nc1ccccc1NC(=O)c1ccc(CNC(=O)OCc2cccnc2)cc1` [ENTINOSTAT]: the half-inhibitory concentration (IC50) in data set [4] turned out to be 5.53 µM; in data set [5], 12.9 µM.
Regarding `COc1cc(-c2ncc(/C=C/C(=O)NO)s2)cc(OC)c1OC`, the concentration for half-maximal inhibition (IC50) in data set [1] stood at 0.1 µM; in data set [6], 3.21 µM; in data set [2] it was 7.66 µM; in data set [3], 2.1 µM; in data set [7], 2.22 µM; in data set [8] it was 1.82 µM. Moreover, the half-inhibitory concentration (IC50) amounted to 3.08 µM in data set [9]; 1.3 µM in [10]; 5.09 µM in [12]; 4.8 µM in data set [4]; 5.18 µM in [5]. In data set [11], the IC50 at 72 h is 0.36 µM.
Regarding `COc1ccc(-c2ncc(/C=C/C(=O)NO)s2)cc1`, the concentration for half-maximal inhibition (IC50) turned out to be 0.13 µM in [1]; 4.34 µM in data set [6]; 5.11 µM in data set [2]; 0.91 µM in [3]; 3.74 µM in data set [7]; 4.12 µM in data set [8]. The IC50 in data set [9] is greater than 10 µM; in data set [10] it was 5.36 µM; in [12] it was greater than 10 µM; in data set [4] it was 3.07 µM; in data set [5] it was 4.21 µM. In addition, in [11], the IC50 at 72 h worked out at 0.74 µM.
Take `COc1cc(-c2ncc(C(=O)NCCCCCCC(=O)NO)s2)cc(OC)c1OC`: the IC50 in data set [1] is 0.67 µM; in [2], greater than 10 µM; in data set [3] it was 0.8 µM.
Take `COc1ccc(-c2ncc(/C=C/C(=O)NO)s2)c(OC)c1OC`: the IC50 in [1] was found to be 0.11 µM; in data set [6], 5.03 µM; in data set [2] it was 6.23 µM; in [3] it was 1.09 µM; in data set [7], 2.56 µM; in [8] it was 3.27 µM. Also, the IC50 is greater than 10 µM in data set [9]; 4.78 µM in data set [10]; greater than 10 µM in [12]; 3.77 µM in data set [4]; 8.17 µM in [5]. Besides, in data set [11], the half-inhibitory concentration (IC50) at 72 h came out at 0.59 µM.
`O=C(CCCCCCNC(=O)c1cnc(-c2ccc(Oc3ccccc3)cc2)s1)NO` gave an IC50 in data set [1] of 0.8 µM.
Same read-out and setting: with `O=C(/C=C/c1cnc(-c2ccc3c(c2)OCO3)s1)NO` the figure was 0.89 µM.
As to `Cc1ccc(-c2ncc(/C=C/C(=O)Nc3ccccc3N)s2)cc1`, the half-maximal inhibitory concentration (IC50) in data set [1] was 0.66 µM; in data set [2] it was 1.03 µM; in data set [3], greater than 10 µM.
On the same counts, the results for `Nc1ccccc1NC(=O)/C=C/c1cnc(-c2ccc3cc[nH]c3c2)s1` are 0.63 µM, 2.03 µM and greater than 10 µM.
`O=C(CCCCCCNC(=O)c1cnc(-c2ccc(Cl)cc2)s1)NO` showed an IC50 in [1] of 0.96 µM.
For `COc1ccc(-c2ncc(C(=O)NCCCCCCC(=O)NO)s2)cc1`, the half-inhibitory concentration (IC50) in data set [1] was 0.71 µM; in data set [2], greater than 10 µM; in data set [3], 0.61 µM.
As to `COc1cc(-c2ncc(/C=C/C(=O)Nc3ccccc3N)s2)cc(OC)c1OC`, the IC50 is 0.08 µM in data set [1]; 9.79 µM in [6]; 2.98 µM in data set [2]; 9.33 µM in [3]; 14.2 µM in [7]; 1.65 µM in data set [8]. Moreover, the concentration for half-maximal inhibition (IC50) was greater than 10 µM in [9]; 2.54 µM in data set [10]; 7.62 µM in data set [12]; 1.65 µM in data set [4]; 3.03 µM in data set [5]. Further, in data set [11], the half-maximal inhibitory concentration (IC50) at 72 h was determined as 0.58 µM.
As to `COc1ccc(-c2ncc(/C=C/C(=O)Nc3ccccc3N)s2)cc1OC`, the IC50 in [1] was determined as 0.53 µM; in [6], 10.4 µM; in data set [2], 2.22 µM; in data set [3], 8.81 µM; in data set [7], 11.5 µM; in data set [8], 1.8 µM. The concentration for half-maximal inhibition (IC50) in data set [9] came out at 5.24 µM; in data set [10] it was 3.05 µM; in data set [12], 6.37 µM; in data set [4] it was 4.59 µM; in [5], 6.28 µM. In data set [11], the IC50 at 72 h amounted to 0.34 µM.
In data set [1], `COc1ccc(-c2ncc(C(=O)NCCCC(=O)NO)s2)c(OC)c1` had an IC50 of 0.73 µM.
Take `O=C(/C=C/c1cnc(-c2ccc3c(c2)OCCO3)s1)NO`: the IC50 is 0.68 µM in data set [1], greater than 10 µM in [2] and 0.77 µM in data set [3].
On to `COc1cccc(-c2ncc(/C=C/C(=O)NO)s2)c1`, for which the IC50 in data set [1] is 0.66 µM.
Consider `COc1cccc(-c2ncc(/C=C/C(=O)Nc3ccccc3N)s2)c1`, for which the concentration for half-maximal inhibition (IC50) in data set [1] was 0.58 µM; in [6], 13.5 µM; in [2], 4.87 µM; in [3], 9.53 µM; in [7] it was 13.4 µM; in data set [8], 3.91 µM. The half-inhibitory concentration (IC50) in [9] is 7.64 µM; in [10] it was 6.05 µM; in [12] it was greater than 10 µM; in data set [4], 8.56 µM; in data set [5], 9.91 µM. For the same compound, the IC50 at 72 h in data set [11] was 0.56 µM.
For `COc1cc(OC)cc(-c2ncc(C(=O)NCCCCCCC(=O)NO)s2)c1`, the 50% inhibitory concentration (IC50) worked out at 0.79 µM in [1], 9.09 µM in data set [2] and 0.76 µM in data set [3].
On the same counts, the results for `COc1ccc(-c2ncc(/C=C/C(=O)Nc3ccccc3N)s2)cc1` are 0.71 µM, 1.79 µM and greater than 10 µM.
On the same counts, the results for `COc1ccc(-c2ncc(/C=C/C(=O)Nc3ccccc3N)s2)c(OC)c1OC` are 0.63 µM, 1.55 µM and greater than 10 µM.
`O=C(/C=C/c1cnc(-c2ccc(F)cc2F)s1)NO` returned a half-maximal inhibitory concentration (IC50) in data set [1] of 0.94 µM.
`COc1ccc(-c2ncc(C(=O)NCCCCC(=O)NO)s2)c(OC)c1`: the figures for the half-maximal inhibitory concentration (IC50) in data set [1], in [2] and in data set [3] were 0.69 µM, 9.91 µM and 0.62 µM, respectively.
On the same counts, the results for `O=C(CCCCCCNC(=O)c1cnc(-c2ccc(OC(F)(F)F)cc2)s1)NO` are 0.7 µM, 8.07 µM and 0.71 µM.
On the same counts, the results for `O=C(/C=C/c1cnc(-c2ccc(N3CCOCC3)cc2)s1)NO` are 0.55 µM, greater than 10 µM and 0.97 µM.

One may read the IC50 as the point on the concentration scale where inhibition reaches its midpoint.
